The values below come from PubChem BioAssay (NCI).

Several values for one entry are separate records, joined by “and”; a condition that tells them apart may be missing. Identical values can stand only once.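 Protocol summary: plate cells (96-well), add compound at 5 concentrations, incubate 48 h, interpolate endpoints linearly. At the GI50, growth is halved. TGI marks complete inhibition of growth.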

Test systems include HL-60(TB) leukemia; BT-549 breast; CAKI-1 renal; SK-MEL-5 melanoma; PC-3 prostate; OVCAR-5 ovarian; SK-OV-3 ovarian; NCI-H460 lung; SF-268 CNS; M14 melanoma.
Holding throughout (assay): NCI-60 cell line screen, 48 h

Turning to `COc1cccc2c1c(C1=C(c3cn(C)c4ccccc34)C(=O)NC1=O)cn2C`, the GI50 in the assay with HL-60(TB) leukemia, with BT-549 breast, in the assay on CAKI-1 renal, with SK-MEL-5 melanoma, in the assay on PC-3 prostate and with OVCAR-5 ovarian was above 25 µM throughout. Moreover, the GI50 in the assay with SK-OV-3 ovarian, in the assay with NCI-H460 lung, in the assay with SF-268 CNS and in the assay with M14 melanoma was above 25 µM in each case. Further, the TGI in the assay with HL-60(TB) leukemia, in the assay on BT-549 breast, with CAKI-1 renal, with SK-MEL-5 melanoma, in the assay with PC-3 prostate and in the assay with OVCAR-5 ovarian was above 25 µM throughout. Also, the TGI in the assay on SK-OV-3 ovarian, with NCI-H460 lung, with SF-268 CNS and in the assay on M14 melanoma was above 25 µM in each case.

Consider `COc1cc(-c2ncn(/C=C\C(=O)OC(C)C)n2)cc(C(F)(F)F)c1`, for which the GI50 in the assay on HL-60(TB) leukemia is 0.0515 µM and 0.051 µM; in the assay on BT-549 breast, 0.0351 µM and 0.0343 µM; in the assay on CAKI-1 renal it was 0.0464 µM and 0.0331 µM; in the assay with SK-MEL-5 melanoma, 0.274 µM and 0.11 µM; in the assay with PC-3 prostate, 0.106 µM and 0.0584 µM; in the assay with OVCAR-5 ovarian, 0.196 µM and 0.154 µM. Further, the GI50 in the assay on SK-OV-3 ovarian is 0.357 µM and 0.179 µM; in the assay on NCI-H460 lung, 0.0293 µM and 0.0327 µM; in the assay on SF-268 CNS, 0.0493 µM and 0.0487 µM; in the assay on M14 melanoma, 0.228 µM and 0.35 µM. The TGI was 4.58 µM and 4.07 µM in the assay with HL-60(TB) leukemia; 1.03 µM and 1.69 µM with BT-549 breast; 12.7 µM and 5.52 µM in the assay on CAKI-1 renal; 1.8 µM and 2.72 µM in the assay with SK-MEL-5 melanoma; 14.9 µM and 12.8 µM in the assay on PC-3 prostate; 17.3 µM and 14.8 µM in the assay with OVCAR-5 ovarian. Moreover, the TGI in the assay with SK-OV-3 ovarian is 16.9 µM and 15.1 µM; in the assay with NCI-H460 lung, 11.1 µM and 1.4 µM; with SF-268 CNS, 8 µM and 3.58 µM; with M14 melanoma it was 4.74 µM and 14.5 µM.

For `O=C(NO)c1ccc(Cn2c(=O)n(-c3ccccc3F)c(=O)c3ccccc32)cc1`, the GI50 in the assay on HL-60(TB) leukemia was 3.48 µM; in the assay with BT-549 breast, 1.9 µM; in the assay on CAKI-1 renal, 2.25 µM; in the assay on SK-MEL-5 melanoma, 1.51 µM; with PC-3 prostate, 1.7 µM; with OVCAR-5 ovarian it was 1.45 µM. Besides, the GI50 in the assay on SK-OV-3 ovarian was 1.96 µM; with NCI-H460 lung, 1.9 µM; in the assay with SF-268 CNS, 1.74 µM; with M14 melanoma, 1.53 µM. Also, the TGI in the assay on HL-60(TB) leukemia is above 100 µM; in the assay with BT-549 breast, 4.13 µM; in the assay with CAKI-1 renal, 7.15 µM; in the assay with SK-MEL-5 melanoma, 2.96 µM; in the assay with PC-3 prostate it was 4.31 µM; with OVCAR-5 ovarian it was 7 µM. In addition, the TGI amounted to 4.87 µM in the assay with SK-OV-3 ovarian, 10.4 µM in the assay with NCI-H460 lung, 4.01 µM in the assay on SF-268 CNS and 3.05 µM with M14 melanoma.

In the case of `CC[C@@]1(O)C(=O)OCc2c1cc1n(c2=O)Cc2c-1nc1cc3c(cc1c2C)OCO3`, the GI50 with HL-60(TB) leukemia is below 0.0001 µM; in the assay with BT-549 breast, 0.0205 µM; in the assay with CAKI-1 renal, below 0.0001 µM; in the assay on SK-MEL-5 melanoma, below 0.0001 µM; in the assay on PC-3 prostate, 0.0254 µM; in the assay with OVCAR-5 ovarian, 0.0694 µM. Also, the GI50 is below 0.0001 µM in the assay on SK-OV-3 ovarian, below 0.0001 µM with NCI-H460 lung, 0.00108 µM in the assay on SF-268 CNS and below 0.0001 µM in the assay with M14 melanoma. Also, the TGI was 0.235 µM and 0.122 µM in the assay with CAKI-1 renal; 0.0559 µM in the assay with SK-MEL-5 melanoma; above 100 µM with PC-3 prostate; 0.0379 µM in the assay on OVCAR-5 ovarian; 0.25 µM and 0.331 µM with SK-OV-3 ovarian; 0.0868 µM and 0.0135 µM in the assay with NCI-H460 lung. In addition, the TGI in the assay with SF-268 CNS was 0.0136 µM; in the assay on M14 melanoma, 1.01 µM.

For the compound `CCc1cc2c(cc1N1CCC(N3CCOCC3)CC1)C(C)(C)c1[nH]c3cc(C#N)ccc3c1C2=O`, the GI50 in the assay on HL-60(TB) leukemia is 1.7 µM and 1.02 µM and 0.443 µM; in the assay with BT-549 breast, 1.49 µM and 1.6 µM; in the assay on CAKI-1 renal it was 1.26 µM and 1.28 µM and 1.13 µM; with SK-MEL-5 melanoma, 1.12 µM and 1.5 µM and 3 µM; in the assay with PC-3 prostate, 0.921 µM and 0.653 µM and 0.738 µM; with OVCAR-5 ovarian, 1.52 µM and 1.29 µM and 1.93 µM. For the same compound, the GI50 with SK-OV-3 ovarian was 1.64 µM and 1.87 µM and 2.84 µM; with NCI-H460 lung, 1.47 µM and 1.74 µM and 1.68 µM; in the assay on SF-268 CNS, 1.57 µM and 1.54 µM and 1.92 µM; in the assay with M14 melanoma, 1.62 µM and 2.05 µM and 2.17 µM. The TGI with HL-60(TB) leukemia is above 100 µM; in the assay with BT-549 breast, 3.69 µM and 3.87 µM; in the assay with CAKI-1 renal it was 12.4 µM and 4.57 µM and 3.87 µM; in the assay on SK-MEL-5 melanoma, 19.2 µM and 14.2 µM and > 10 µM; in the assay on PC-3 prostate it was > 36.1 µM and 14.6 µM and > 10 µM; in the assay on OVCAR-5 ovarian, 19.3 µM and 9.3 µM and > 10 µM. Besides, the TGI with SK-OV-3 ovarian is 3.4 µM and 3.72 µM and 8.64 µM; in the assay on NCI-H460 lung, 4.03 µM and 4.17 µM and 7.64 µM; in the assay with SF-268 CNS, 4.02 µM and 3.97 µM and 5.47 µM; in the assay with M14 melanoma, 8.88 µM and 11.9 µM and > 10 µM.

Consider `CCOC(=O)C(C)(C)C(O)C(C)C` (stereo not given), for which the TGI in the assay on HL-60(TB) leukemia, in the assay on BT-549 breast, in the assay on CAKI-1 renal, with SK-MEL-5 melanoma, in the assay on PC-3 prostate and with OVCAR-5 ovarian was above 100 µM throughout. Besides, the TGI in the assay on SK-OV-3 ovarian, in the assay on NCI-H460 lung, in the assay on SF-268 CNS and with M14 melanoma was above 100 µM each time.

Turning to `COc1cc(O)c2c(c1)C(=O)c1cc3c(c(O)c1C2=O)C(OC1OC(C)C(O)C(O)C1OC)C(OC)C(C)(O)C3=O` (stereo not given), the GI50 in the assay with HL-60(TB) leukemia is 3.44 µM and 6.26 µM; in the assay on BT-549 breast, 2.07 µM; in the assay with CAKI-1 renal, 1.99 µM and 0.671 µM; with SK-MEL-5 melanoma, 1.27 µM; in the assay with PC-3 prostate, 2.57 µM; in the assay on OVCAR-5 ovarian, 2.18 µM. Further, the GI50 in the assay on SK-OV-3 ovarian is 5.2 µM; in the assay with NCI-H460 lung it was 1.27 µM; in the assay with SF-268 CNS it was 2.56 µM; in the assay with M14 melanoma it was 1.69 µM. Moreover, the TGI with HL-60(TB) leukemia is 17.6 µM and 24.3 µM; with BT-549 breast, 5.18 µM; in the assay with CAKI-1 renal it was 6.82 µM and 4.95 µM; with SK-MEL-5 melanoma, 2.57 µM and 2.26 µM; in the assay on PC-3 prostate, 12.3 µM; in the assay on OVCAR-5 ovarian, 8.48 µM and 9.24 µM. In addition, the TGI in the assay with SK-OV-3 ovarian was 52 µM and 34.8 µM; with NCI-H460 lung it was 4.54 µM and 4.77 µM; with SF-268 CNS, 15.2 µM and 40.5 µM; in the assay on M14 melanoma, 3.65 µM.

For `CCCCCCCCCCCCCCCCOP(=O)(O)OP(=O)(O)OCC1OC(n2ccc(N)nc2=O)C(O)C1O` (stereo not given), the TGI in the assay with HL-60(TB) leukemia, in the assay with BT-549 breast, with CAKI-1 renal, with SK-MEL-5 melanoma, in the assay with PC-3 prostate and with OVCAR-5 ovarian was above 100 µM throughout. Besides, the TGI was above 100 µM in the assay on SK-OV-3 ovarian; above 100 µM in the assay on NCI-H460 lung; above 100 µM in the assay with SF-268 CNS; > 100 µM and 98.4 µM in the assay on M14 melanoma. Also, the GI50 in the assay on CAKI-1 renal is > 100 µM and 26.1 µM; with SK-OV-3 ovarian, > 100 µM and 48.7 µM.
